Results: US20260022142A1, “MACROCYCLIC IMMUNOMODULATORS” (Bristol-Myers Squibb Company, priority 2022, published 2026)
Numbered stars: 1 amine (or outer) side, 2 acyl side, 3 side chain; on linkers, the order of the positions; unused ones are H or OH. Bridge positions count the residues as written; N and C are the ends. Square brackets hold non-standard residues; d marks the D form. Peptide text beside a SMILES is read from it. * marks the point of attachment. ξ: configuration not given here. Phe(3-CF3) = N[C@@H](Cc1cccc(C(F)(F)F)c1)C(=O)O; Phe(4-CONH2) = NC(=O)c1ccc(C[C@H](N)C(=O)O)cc1; Phe(4-COOH) = N[C@@H](Cc1ccc(C(=O)O)cc1)C(=O)O; Bip = N[C@@H](Cc1ccc(-c2ccccc2)cc1)C(=O)O; NH(CH2)14COOH = O=C(O)CCCCCCCCCCCCCCN*; Phe(3-Me) = Cc1cccc(C[C@H](N)C(=O)O)c1; γGlu = O=C(O)[C@H](CCC(=O)[*:2])N[*:1]; NH(CH2)12COOH = O=C(O)CCCCCCCCCCCCN*; Val(3-OH) = CC(C)(O)[C@H](N)C(=O)O; X6 = O=C(Cc1ccc(CN[*:1])cc1)[*:2]; Cha = N[C@@H](CC1CCCCC1)C(=O)O; Cit = NC(=O)NCCC[C@H](N)C(=O)O; Ile(3ξ) = CCC(C)[C@H](N)C(=O)O; Thr(3ξ) = CC(O)[C@H](N)C(=O)O; Dap(Me) = CNC[C@H](N)C(=O)O; Carboxymethyl = O=C(O)C*; Orn = NCCC[C@H](N)C(=O)O; Aun = NCCCCCCCCCCC(=O)O; Dab = NCC[C@H](N)C(=O)O; Dap = NC[C@H](N)C(=O)O; AEEA = NCCOCCOCC(=O)O

What follows are compounds tested against T1, PD-1/PD-L1 interaction (PE-labeled human PD-L1-Ig binding to Jurkat cell line over-expressing human PD-1) (Homo sapiens, UniProt Q15116) (assay: Jurkat-PD-1 Cell Binding High-Content Screening Assay (CBA)). Conditions: Jurkat cell line over-expressing human PD-1; PE-labeled PD-L1-Ig 20 nM final; read-out: Jurkat hPD1-PDL1 IC50.
T1 construct: expressed in transfected cells; host or cells: Jurkat
Assay type: cell-based
Method in brief: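 Human PD-L1-Ig carrying a covalent PE label on its Ig tag serves as the probe, applied at 20 nM final to compound-treated (2 h, 37° C) Jurkat-hPD-1 cells in medium with 10% fetal calf serum. After one hour, fixation and nuclear staining precede high-content image analysis.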

T1 sequence (Q15116 25-288): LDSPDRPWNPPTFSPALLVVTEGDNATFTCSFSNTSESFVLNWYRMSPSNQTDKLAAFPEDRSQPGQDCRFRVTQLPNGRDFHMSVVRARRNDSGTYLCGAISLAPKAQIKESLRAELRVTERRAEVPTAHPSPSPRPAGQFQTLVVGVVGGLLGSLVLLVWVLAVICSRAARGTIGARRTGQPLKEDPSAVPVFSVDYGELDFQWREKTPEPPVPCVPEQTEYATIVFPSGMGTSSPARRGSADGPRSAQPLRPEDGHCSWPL

Row | IC50 [nM] | SMILES
1 | 11.6 | Cc1cccc(C[C@@H]2NC(=O)[C@H](CC(=O)O)NC(=O)[C@H](Cc3ccc(OCC(=O)O)cc3)NC(=O)[C@H](CCCNC(=N)N)NC(=O)CSC[C@@H](C(=O)N[C@@H](CCN)C(=O)NCCCCCCCCCCC(=O)O)NC(=O)[C@H](CCC(N)=O)NC(=O)[C@H](C(C)C)NC(=O)[C@H](CC3CCCCC3)NC(=O)[C@H](CCN)NC(=O)[C@@H](CC(C)C)NC(=O)[C@H](CCCN)NC(=O)[C@H](C(C)(C)O)NC(=O)[C@H](Cc3ccc(-c4ccccc4)cc3)NC(=O)[C@H](Cc3ccc(OCC(=O)O)cc3)NC2=O)c1 [Compound 2140] ({CH2CO}-RY(Carboxymethyl)D[Phe(3-Me)]Y(Carboxymethyl)[Bip][Val(3-OH)][Orn][dL][Dab][Cha]VQC[Dab][Aun]-OH; thioether N-14)
2 | 26.8 | COC[C@@H]1NC(=O)CSC[C@@H](C(=O)N[C@@H](CCN)C(=O)NCCOCCOCC(=O)N[C@@H](CCC(=O)NCCOCCOCC(=O)NCCCCCCCCCCCCC(=O)O)C(=O)O)NC(=O)[C@H](CO)NC(=O)[C@H](C(C)(C)O)NC(=O)[C@H](CC2CCCCC2)NC(=O)[C@H](CCN)NC(=O)[C@@H](CC(C)C)NC(=O)[C@H](CCCN)NC(=O)[C@H](Cc2ccc(C(=O)O)cc2)NC(=O)[C@H](Cc2ccc(-c3ccccc3)cc2)NC(=O)[C@H](Cc2ccc(C(=O)O)cc2)NC(=O)[C@H](Cc2cccc(C(F)(F)F)c2)NC(=O)[C@H](CC(=O)O)NC(=O)[C@H](Cc2ccc(OCC(=O)O)cc2)NC1=O [Compound 2938] ({CH2CO}-S(Me)Y(Carboxymethyl)D[Phe(3-CF3)][Phe(4-COOH)][Bip][Phe(4-COOH)][Orn][dL][Dab][Cha][Val(3-OH)]SC[Dab][AEEA][γGlu][AEEA]-{NH(CH2)12COOH}; thioether N-14)
3 | 19.1 | CCC(C)[C@@H]1NC(=O)[C@H](Cc2ccc(-c3ccccc3)cc2)NC(=O)[C@H](C(C)C)NC(=O)[C@H](Cc2c[nH]c3ccccc23)NC(=O)[C@H](CC(=O)O)NC(=O)[C@H](Cc2ccc(OCC(=O)O)cc2)NC(=O)[C@H](CO)NC(=O)CSC[C@@H](C(=O)N[C@@H](CCCN)C(=O)NCCCCCCCCCCC(=O)O)NC(=O)[C@H](C(C)O)NC(=O)[C@H](C(C)C)NC(=O)[C@H](CC2CCCCC2)NC(=O)[C@H](CCN)NC(=O)[C@@H](CC(C)C)NC(=O)[C@H](CCCN)NC1=O (stereo partly drawn) [Compound 3099] ({CH2CO}-SY(Carboxymethyl)DWV[Bip][Ile(3ξ)][Orn][dL][Dab][Cha]V[Thr(3ξ)]C[Orn][Aun]-OH; thioether N-14)
4 | 11.9 | Cc1cccc(C[C@@H]2NC(=O)[C@H](CC(=O)O)NC(=O)[C@H](Cc3ccc(OCC(=O)O)cc3)NC(=O)[C@H](CN)NC(=O)CSC[C@@H](C(=O)N[C@@H](CCN)C(=O)NCCCCCCCCCCC(=O)O)NC(=O)[C@H](CCCN)NC(=O)[C@H](C(C)C)NC(=O)[C@H](CC3CCCCC3)NC(=O)[C@H](CCN)NC(=O)[C@@H](CC(C)C)NC(=O)[C@H](CCCN)NC(=O)[C@H](Cc3ccc(OCC(=O)O)cc3)NC(=O)[C@H](Cc3ccc(-c4ccccc4)cc3)NC(=O)[C@H](Cc3ccc(O)cc3)NC2=O)c1 [Compound 2858] ({CH2CO}-[Dap]Y(Carboxymethyl)D[Phe(3-Me)]Y[Bip]Y(Carboxymethyl)[Orn][dL][Dab][Cha]V[Orn]C[Dab][Aun]-OH; thioether N-14)
5 | 6 | Cc1cccc(C[C@@H]2NC(=O)[C@H](CC(=O)O)NC(=O)[C@H](Cc3ccc(OCC(=O)O)cc3)NC(=O)[C@H](CN)NC(=O)CSC[C@@H](C(=O)N[C@@H](CCN)C(=O)NCCOCCOCC(=O)NCCCCCCCCCCC(=O)O)NC(=O)[C@H](CCCN)NC(=O)[C@H](C(C)C)NC(=O)[C@H](CC3CCCCC3)NC(=O)[C@H](CCN)NC(=O)[C@@H](CC(C)C)NC(=O)[C@H](CCCN)NC(=O)[C@H](Cc3ccc(O)cc3)NC(=O)[C@H](Cc3ccc(-c4ccccc4)cc3)NC(=O)[C@H](Cc3ccc(C(N)=O)cc3)NC2=O)c1 [Compound 2066] ({CH2CO}-[Dap]Y(Carboxymethyl)D[Phe(3-Me)][Phe(4-CONH2)][Bip]Y[Orn][dL][Dab][Cha]V[Orn]C[Dab][AEEA][Aun]-OH; thioether N-14)
6 | 11.8 | Cc1cccc(C[C@@H]2NC(=O)[C@H](CC(=O)O)NC(=O)[C@H](Cc3ccc(OCC(=O)O)cc3)NC(=O)[C@H](CCCNC(=N)N)NC(=O)CSC[C@@H](C(=O)N[C@@H](CCN)C(=O)NCCCCCCCCCCC(=O)O)NC(=O)[C@H](CCC(N)=O)NC(=O)[C@H](C(C)C)NC(=O)[C@H](CC3CCCCC3)NC(=O)[C@H](CCN)NC(=O)[C@@H](CC(C)C)NC(=O)[C@H](CCN)NC(=O)[C@H](CCCNC(N)=O)NC(=O)[C@H](Cc3ccc(-c4ccccc4)cc3)NC(=O)[C@H](C(C)C)NC2=O)c1 [Compound 2797] ({CH2CO}-RY(Carboxymethyl)D[Phe(3-Me)]V[Bip][Cit][Dab][dL][Dab][Cha]VQC[Dab][Aun]-OH; thioether N-14)
7 | 18.6 | Cc1cccc(C[C@@H]2NC(=O)[C@H](CC(=O)O)NC(=O)[C@H](Cc3ccc(OCC(=O)O)cc3)NC(=O)[C@H](CN)NC(=O)CSC[C@@H](C(=O)N[C@@H](CCCN)C(=O)NCc3ccc(CC(=O)NCCCCCCCCCCC(=O)O)cc3)NC(=O)[C@H](CN)NC(=O)[C@H](C(C)C)NC(=O)[C@H](CC3CCCCC3)NC(=O)[C@H](CCN)NC(=O)[C@@H](CC(C)C)NC(=O)[C@H](CCCN)NC(=O)[C@H](C(C)C)NC(=O)[C@H](Cc3ccc(-c4ccccc4)cc3)NC(=O)[C@H](C(C)C)NC2=O)c1 [Compound 2004] ({CH2CO}-[Dap]Y(Carboxymethyl)D[Phe(3-Me)]V[Bip]V[Orn][dL][Dab][Cha]V[Dap]C[Orn][X6][Aun]-OH; thioether N-14)
8 | 173 | CNC[C@@H]1NC(=O)CSC[C@@H](C(=O)N[C@@H](CCN)C(=O)NCCOCCOCC(=O)N[C@@H](CO)C(=O)N[C@@H](CO)C(=O)N[C@@H](CO)C(=O)N[C@@H](CO)C(=O)N[C@@H](CCC(=O)NCCCCCCCCCCCCCCC(=O)O)C(=O)O)NC(=O)[C@H](Cc2cnc[nH]2)NC(=O)[C@H](C(C)(C)O)NC(=O)[C@H](CC2CCCCC2)NC(=O)[C@H](CCN)NC(=O)[C@@H](CC(C)C)NC(=O)[C@H](CCCN)NC(=O)[C@H](Cc2ccc(C(=O)O)cc2)NC(=O)[C@H](Cc2ccc(-c3ccccc3)cc2)NC(=O)[C@H](Cc2ccc(C(=O)O)cc2)NC(=O)[C@H](Cc2cccc(C(F)(F)F)c2)NC(=O)[C@H](CC(=O)O)NC(=O)[C@H](Cc2ccc(OCC(=O)O)cc2)NC1=O [Compound 3901] ({CH2CO}-[Dap(Me)]Y(Carboxymethyl)D[Phe(3-CF3)][Phe(4-COOH)][Bip][Phe(4-COOH)][Orn][dL][Dab][Cha][Val(3-OH)]HC[Dab][AEEA]SSSSE(NH(CH2)14COOH)-OH; thioether N-14)
9 | 9.4 | Cc1cccc(C[C@@H]2NC(=O)[C@H](CC(=O)O)NC(=O)[C@H](Cc3ccc(OCC(=O)O)cc3)NC(=O)[C@H](CCCNC(=N)N)NC(=O)CSC[C@@H](C(=O)N[C@@H](CCN)C(=O)NCCCCCCCCCCC(=O)O)NC(=O)[C@H](C(C)O)NC(=O)[C@H](C(C)C)NC(=O)[C@H](CC3CCCCC3)NC(=O)[C@H](CCN)NC(=O)[C@@H](CC(C)C)NC(=O)[C@H](CCCNC(N)=O)NC(=O)[C@H](Cc3ccc(OCC(=O)O)cc3)NC(=O)[C@H](Cc3ccc(-c4ccccc4)cc3)NC(=O)[C@H](Cc3ccc(O)cc3)NC2=O)c1 (stereo partly drawn) [Compound 3371] ({CH2CO}-RY(Carboxymethyl)D[Phe(3-Me)]Y[Bip]Y(Carboxymethyl)[Cit][dL][Dab][Cha]V[Thr(3ξ)]C[Dab][Aun]-OH; thioether N-14)
